This test has as its target EGFR (Homo sapiens, UniProt P00533). Put plainly: Cellular EGFR assay (cell EGFR). It counts as cell-based. Further details: expressed in transfected cells; host or cells: NIH 3T3/C7. To be noted: 50% inhibition of target PTK activity. The method, then:
EGF Receptor kinase activity in cells genetically engineered to express human EGF-R can be measured as described below:
1. NIH 3T3/C7 cell line (Honegger, et al., Cell 51:199-209, 1987) can be use for this assay.
1. Check seeded cells for contamination using an inverted microscope. Dilute test compounds stock (10 mg/ml in DMSO) 1:10 in DMEM medium, then transfer 5 μl to a test well for a test compounds drug dilution of 1:200 and a final DMSO concentration of 1%. Control wells receive DMSO alone. Incubate in 5% CO2 at 37° C. for one hour.
2. Prepare EGF ligand: dilute stock EGF in DMEM so that upon transfer of 10 μl dilute EGF (1:12 dilution), 25 nM final concentration is attained.
3. Prepare fresh 10 ml HNTG* sufficient for 100 μl per well wherein HNTG* comprises: HNTG stock (2.0 ml), milli-Q H2O (7.3 ml), EDTA, 100 mM, pH 7.0 (0.5 ml), Na3VO4 0.5 M (0.1 ml) and Na4(P2O7), 0.2 M (0.1 ml).
5. After two hours incubation with drug, add prepared EGF ligand to cells, 10 μl per well, to yield a final concentration of 25 nM. Control wells receive DMEM alone. Incubate, shaking, at room temperature, for 5 minutes.
6. Remove test compound, EGF, and DMEM. Wash cells twice with PBS. Transfer HNTG* to cells, 100 μl per well. Place on ice for 5 minutes. Meanwhile, remove blocking buffer from other ELISA plate and wash with TBST as described above.
7. With a pipette tip securely fitted to a micropipettor, scrape cells from plate and homogenize cell material by repeatedly aspirating and dispensing the HNTG* lysis buffer. Transfer lysate to a coated, blocked, and washed ELISA plate. Incubate shaking at room temperature for one hour.
8. Remove lysate and wash 4 times with TBST. Transfer freshly diluted anti-Ptyr antibody to ELISA plate at 100 μl per well. […]
12. The maximal phosphotyrosine signal is determined by subtracting the value of the negative controls from the positive controls. The percent inhibition of phosphotyrosine content for extract-containing wells is then calculated, after subtraction of the negative controls.

Chain of EGFR (P00533 25-1210): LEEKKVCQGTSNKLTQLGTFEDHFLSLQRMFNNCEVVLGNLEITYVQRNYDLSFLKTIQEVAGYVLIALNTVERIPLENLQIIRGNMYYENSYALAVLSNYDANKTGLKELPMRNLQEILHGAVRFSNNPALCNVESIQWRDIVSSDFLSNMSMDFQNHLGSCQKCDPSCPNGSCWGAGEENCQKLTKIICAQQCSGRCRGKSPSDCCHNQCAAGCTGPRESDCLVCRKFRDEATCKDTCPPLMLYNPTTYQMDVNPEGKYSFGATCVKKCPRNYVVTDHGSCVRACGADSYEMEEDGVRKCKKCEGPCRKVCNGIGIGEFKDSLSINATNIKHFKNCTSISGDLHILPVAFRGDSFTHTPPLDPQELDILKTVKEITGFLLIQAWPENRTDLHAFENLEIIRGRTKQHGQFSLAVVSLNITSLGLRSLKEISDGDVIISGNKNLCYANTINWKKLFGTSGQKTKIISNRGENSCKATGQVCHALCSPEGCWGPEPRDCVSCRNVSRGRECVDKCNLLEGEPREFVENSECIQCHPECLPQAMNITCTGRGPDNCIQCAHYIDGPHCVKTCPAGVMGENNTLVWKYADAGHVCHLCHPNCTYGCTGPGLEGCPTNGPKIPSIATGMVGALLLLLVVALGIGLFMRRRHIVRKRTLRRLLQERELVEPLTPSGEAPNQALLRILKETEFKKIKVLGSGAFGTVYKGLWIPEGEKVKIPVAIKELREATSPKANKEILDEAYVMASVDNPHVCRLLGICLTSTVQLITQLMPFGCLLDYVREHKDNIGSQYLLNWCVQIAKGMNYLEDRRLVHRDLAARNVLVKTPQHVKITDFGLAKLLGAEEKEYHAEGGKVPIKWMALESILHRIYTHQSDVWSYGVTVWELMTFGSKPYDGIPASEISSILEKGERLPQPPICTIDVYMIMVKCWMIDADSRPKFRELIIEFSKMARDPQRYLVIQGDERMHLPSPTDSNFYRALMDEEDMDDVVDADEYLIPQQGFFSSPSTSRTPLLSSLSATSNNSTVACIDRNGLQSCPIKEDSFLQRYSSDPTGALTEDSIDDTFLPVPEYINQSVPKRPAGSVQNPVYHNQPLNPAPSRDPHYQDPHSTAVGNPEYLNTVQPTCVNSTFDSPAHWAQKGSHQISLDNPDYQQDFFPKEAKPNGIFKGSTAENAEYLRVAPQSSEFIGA

For `COc1ccc2c(c1)C(CC(=O)[O-])CC2=C1C(=O)Nc2ccccc21.[Na+]` (stereo not drawn) [Compound 13, [6-Methoxy-3-(2-oxo-1,2-dihydroindol-3-ylidene)-indan-1-yl]acetic Acid Sodium Salt], the IC50 is over 100 µM.

`O=C1Nc2ccccc2/C1=C1\CCc2ccccc21` [Compound 10, 3-Indan-1-ylidene-1,3-dihydroindol-2-one] showed an IC50 of over 100 µM.

Regarding `COc1ccc2c(c1)C(CC(=O)O)C/C2=C1/C(=O)Nc2ccccc21` (stereo not drawn) [Compound 11, [6-Methoxy-3-(2-oxo-1,2-dihydroindol-3-ylidene)-indan-1-yl]acetic Acid], the IC50 was over 100 µM.

The IC50 is the midpoint of a concentration-inhibition curve. High values mean weaker potency in that assay, low ones greater potency in that assay.

(Values after patent US6642251B1, “Geometrically restricted 2-indolinone derivatives as modulators of protein kinase activity” (Sugen, Inc., priority 1998, dated 2003).)
